Where two headings read alike, the source gives them in different places.
Tests used:
MV-4-11 cells = assay: MV-4-11 cell proliferation assay (CellTiter-Glo 2.0); assay type: cell-based; conditions: MV-4-11, 384-well, 11-dose dilution series, read-out: IC50, inhibition of MV-4-11 cell proliferation
Experimental: MV-4-11 cell line was purchased from ATCC and maintained in RPMI medium supplemented with 10% fetal bovine serum and 100 U/mL of penicillin/streptomycin. One thousand MV-4-11 cells/50 μl per well were seeded in white 384-well plate, followed by treatment with indicated compounds in a 11-dose dilution series. Cell proliferation was measured using CellTiter-Glo 2.0 luciferase-based ATP detection assay (Promega, Madison, WI) following the manufacturer's protocol. Plates were then read on a TECAN Sparks multimode microplate reader. Data was analyzed using GraphPad Prism 9 (GraphPad Software, San Diego, CA) to obtain IC50 values.

CLK1 = CLK1 (Homo sapiens (Human), UniProt P49759); assay: CLK kinase activity assay (ADP-Glo); assay type: biochemical
Chain of CLK1 (P49759 whole entry): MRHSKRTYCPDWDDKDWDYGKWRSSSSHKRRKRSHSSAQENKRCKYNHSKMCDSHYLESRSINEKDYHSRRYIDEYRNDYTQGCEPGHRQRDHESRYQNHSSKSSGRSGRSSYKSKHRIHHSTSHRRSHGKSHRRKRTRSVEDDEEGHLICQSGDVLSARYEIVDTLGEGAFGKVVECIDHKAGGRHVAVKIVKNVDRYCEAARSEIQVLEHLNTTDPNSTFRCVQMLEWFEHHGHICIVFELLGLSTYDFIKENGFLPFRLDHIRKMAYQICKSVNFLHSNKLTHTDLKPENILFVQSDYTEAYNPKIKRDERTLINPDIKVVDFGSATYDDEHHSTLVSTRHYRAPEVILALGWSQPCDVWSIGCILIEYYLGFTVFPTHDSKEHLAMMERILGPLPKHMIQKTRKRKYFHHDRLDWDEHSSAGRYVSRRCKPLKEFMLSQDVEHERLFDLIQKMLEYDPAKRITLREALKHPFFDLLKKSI
Experimental: (§1) Kinase protein and substrate were pre-diluted in the HEPES assay buffer (100 mM HEPES, pH 7.5, 0.01% Triton X-100, 0.1% BSA, 5 mM MgCl2, 1 mM DTT, 10 μM Sodium Orthovanadate, 10 μM Beta-Glycerophosphate) dispensed into 384 well plate (5 μL per well). Control samples (0%-inhibition in the absence of inhibitor, DMSO only) and 100%-inhibition (in the absence of enzyme) were assembled in replicates of six and were used to calculate %-inhibition in the presence of compounds. Test compounds were added to the protein samples by acoustic dispensing (Labcyte Echo550). Concentration of DMSO was equalized to 1% in all samples. Reactions were initiated by addition of ATP by acoustic dispensing (Labcyte Echo550) and incubated according to assay specific incubation time. After incubation, 5 uL of Promega ADP-Glo reagent was added and incubated for 40 minutes. After 40 minutes, 10 uL of Promega kinase detection reagent was added. After 10 min of incubation with Kinase detection reagent, the luminescence was read on microplate reader (Biotek Synergy).

CLK3 = CLK3 (Homo sapiens (Human), UniProt P49761); assay: CLK kinase activity assay (ADP-Glo); assay type: biochemical
Chain of CLK3 (P49761 whole entry): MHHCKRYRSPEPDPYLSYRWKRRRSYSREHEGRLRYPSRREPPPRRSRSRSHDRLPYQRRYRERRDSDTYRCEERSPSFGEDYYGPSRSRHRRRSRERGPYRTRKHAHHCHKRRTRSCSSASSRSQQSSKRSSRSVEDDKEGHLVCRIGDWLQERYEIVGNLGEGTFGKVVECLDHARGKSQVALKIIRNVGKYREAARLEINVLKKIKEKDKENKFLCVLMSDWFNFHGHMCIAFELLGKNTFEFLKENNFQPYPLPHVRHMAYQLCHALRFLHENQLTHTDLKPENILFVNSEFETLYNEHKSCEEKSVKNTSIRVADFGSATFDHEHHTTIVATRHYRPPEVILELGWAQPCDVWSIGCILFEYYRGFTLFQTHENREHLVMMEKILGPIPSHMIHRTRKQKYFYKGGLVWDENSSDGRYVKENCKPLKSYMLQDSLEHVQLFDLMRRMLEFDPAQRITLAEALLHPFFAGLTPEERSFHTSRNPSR
Experimental: as §1

CLK2 = CLK2 (Homo sapiens (Human), UniProt P49760); assay: CLK kinase activity assay (ADP-Glo); assay type: biochemical
Chain of CLK2 (P49760 whole entry): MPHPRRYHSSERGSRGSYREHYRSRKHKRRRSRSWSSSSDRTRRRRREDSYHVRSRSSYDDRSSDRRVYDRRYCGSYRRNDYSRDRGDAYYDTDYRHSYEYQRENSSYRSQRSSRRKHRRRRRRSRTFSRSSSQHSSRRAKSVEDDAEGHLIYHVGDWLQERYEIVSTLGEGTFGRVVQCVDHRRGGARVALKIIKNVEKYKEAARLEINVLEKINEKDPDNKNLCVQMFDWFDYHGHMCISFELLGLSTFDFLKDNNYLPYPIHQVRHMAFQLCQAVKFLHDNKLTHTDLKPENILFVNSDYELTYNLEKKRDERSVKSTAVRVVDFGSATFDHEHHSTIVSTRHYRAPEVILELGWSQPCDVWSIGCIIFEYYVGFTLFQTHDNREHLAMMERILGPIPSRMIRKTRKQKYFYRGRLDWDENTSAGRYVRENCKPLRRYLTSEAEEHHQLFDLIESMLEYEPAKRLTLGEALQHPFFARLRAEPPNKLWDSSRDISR
Experimental: as §1

CLK4 = CLK4 (Homo sapiens (Human), UniProt Q9HAZ1); assay: CLK kinase activity assay (ADP-Glo); assay type: biochemical
Chain of CLK4 (Q9HAZ1 whole entry): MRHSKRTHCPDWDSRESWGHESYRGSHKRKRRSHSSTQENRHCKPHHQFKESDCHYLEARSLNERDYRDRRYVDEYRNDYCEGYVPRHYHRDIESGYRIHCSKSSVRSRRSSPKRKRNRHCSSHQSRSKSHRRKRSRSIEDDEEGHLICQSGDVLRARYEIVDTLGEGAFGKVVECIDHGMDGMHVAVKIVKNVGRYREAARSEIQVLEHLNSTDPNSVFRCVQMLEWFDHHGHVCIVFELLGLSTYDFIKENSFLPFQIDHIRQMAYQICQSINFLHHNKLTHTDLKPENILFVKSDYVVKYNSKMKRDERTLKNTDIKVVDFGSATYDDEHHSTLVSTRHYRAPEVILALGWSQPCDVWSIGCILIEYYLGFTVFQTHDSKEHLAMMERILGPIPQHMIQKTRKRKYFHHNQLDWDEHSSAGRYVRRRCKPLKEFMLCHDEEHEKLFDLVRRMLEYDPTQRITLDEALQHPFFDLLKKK
Experimental: as §1

FLT3 = FLT3 (Homo sapiens (Human), UniProt P36888); assay: HotSpot radiometric kinase assay (Reaction Biology); assay type: biochemical
Chain of FLT3 (P36888 27-993): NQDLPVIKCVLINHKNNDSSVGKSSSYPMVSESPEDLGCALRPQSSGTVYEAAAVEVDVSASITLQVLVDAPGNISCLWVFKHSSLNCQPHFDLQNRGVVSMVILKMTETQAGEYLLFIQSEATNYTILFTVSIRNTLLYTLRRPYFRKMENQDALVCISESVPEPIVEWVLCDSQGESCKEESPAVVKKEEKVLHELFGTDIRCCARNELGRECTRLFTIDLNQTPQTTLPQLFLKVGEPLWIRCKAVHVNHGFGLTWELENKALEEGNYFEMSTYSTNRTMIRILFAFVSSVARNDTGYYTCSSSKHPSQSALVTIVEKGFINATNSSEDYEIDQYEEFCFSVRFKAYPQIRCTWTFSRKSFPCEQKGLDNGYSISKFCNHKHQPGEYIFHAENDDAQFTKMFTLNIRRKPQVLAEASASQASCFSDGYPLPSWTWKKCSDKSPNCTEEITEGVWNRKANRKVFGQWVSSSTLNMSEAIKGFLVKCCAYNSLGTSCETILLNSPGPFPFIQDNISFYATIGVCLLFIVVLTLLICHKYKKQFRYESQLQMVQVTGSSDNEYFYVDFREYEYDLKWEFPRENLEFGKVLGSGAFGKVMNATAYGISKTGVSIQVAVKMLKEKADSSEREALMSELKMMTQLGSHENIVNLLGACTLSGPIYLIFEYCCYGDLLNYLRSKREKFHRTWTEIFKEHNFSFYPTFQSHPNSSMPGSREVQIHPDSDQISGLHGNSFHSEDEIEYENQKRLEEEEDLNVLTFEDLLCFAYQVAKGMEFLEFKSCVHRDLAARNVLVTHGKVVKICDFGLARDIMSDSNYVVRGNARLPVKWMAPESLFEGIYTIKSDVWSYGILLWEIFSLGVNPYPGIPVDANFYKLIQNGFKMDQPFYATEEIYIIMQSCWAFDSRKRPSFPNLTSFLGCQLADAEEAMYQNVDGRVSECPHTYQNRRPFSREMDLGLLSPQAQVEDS
Experimental: (§2) Briefly, specific kinase/substrate pairs along with required cofactors were prepared in reaction buffer; 20 mM Hepes pH 7.5, 10 mM MgCl2, 1 mM EGTA, 0.02% Brij35, 0.02 mg/ml BSA, 0.1 mM Na3VO4, 2 mM DTT, 1% DMSO. Compounds were delivered into the reaction, followed ˜20 minutes later by addition of a mixture of ATP (Sigma, St. Louis MO) and ^33P ATP (Perkin Elmer, Waltham MA) to a final concentration of 10 M. Reactions were carried out at room temperature for 120 min, followed by spotting of the reactions onto P81 ion exchange filter paper (Whatman Inc., Piscataway, NJ). Unbound phosphate was removed by extensive washing of filters in 0.75% phosphoric acid. […] IC50 values and curve fits were obtained using Prism (GraphPad Software).

FLT3-ITD = FLT3-ITD (Homo sapiens, UniProt P36888, ITD); assay: as above; assay type: biochemical
Chain of FLT3-ITD (P36888 whole entry, looked up, change not shown): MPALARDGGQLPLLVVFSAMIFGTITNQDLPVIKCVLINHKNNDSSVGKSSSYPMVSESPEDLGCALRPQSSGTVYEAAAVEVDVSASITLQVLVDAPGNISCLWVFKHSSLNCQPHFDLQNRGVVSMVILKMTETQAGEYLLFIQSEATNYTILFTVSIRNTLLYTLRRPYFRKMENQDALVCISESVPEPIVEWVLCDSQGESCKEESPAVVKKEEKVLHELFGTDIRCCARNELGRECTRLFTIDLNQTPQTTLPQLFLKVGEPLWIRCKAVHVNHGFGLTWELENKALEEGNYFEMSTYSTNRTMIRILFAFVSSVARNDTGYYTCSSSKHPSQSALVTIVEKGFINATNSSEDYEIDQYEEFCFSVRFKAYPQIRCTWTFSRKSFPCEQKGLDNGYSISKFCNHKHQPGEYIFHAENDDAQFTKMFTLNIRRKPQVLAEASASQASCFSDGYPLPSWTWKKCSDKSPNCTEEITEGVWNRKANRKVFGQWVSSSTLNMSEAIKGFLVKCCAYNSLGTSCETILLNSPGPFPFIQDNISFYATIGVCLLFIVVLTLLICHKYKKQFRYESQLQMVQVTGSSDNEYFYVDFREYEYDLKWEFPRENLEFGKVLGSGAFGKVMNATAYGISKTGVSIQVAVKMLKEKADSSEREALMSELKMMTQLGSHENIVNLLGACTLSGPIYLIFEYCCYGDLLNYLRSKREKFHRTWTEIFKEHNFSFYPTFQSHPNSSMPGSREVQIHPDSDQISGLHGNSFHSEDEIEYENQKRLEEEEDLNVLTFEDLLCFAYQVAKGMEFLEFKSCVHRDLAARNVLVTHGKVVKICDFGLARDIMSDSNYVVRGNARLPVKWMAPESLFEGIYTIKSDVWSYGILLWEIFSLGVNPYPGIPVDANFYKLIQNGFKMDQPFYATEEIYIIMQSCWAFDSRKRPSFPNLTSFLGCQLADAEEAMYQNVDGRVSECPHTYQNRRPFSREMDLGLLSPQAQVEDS
Experimental: as §2

| Compound | IC50 (MV-4-11 cells; Homo sapiens, MV4-11) | IC50 (CLK1) | IC50 (CLK3) | IC50 (CLK2) | IC50 (CLK4) | further results |
| --- | --- | --- | --- | --- | --- | --- |
| CCc1c2c(nn1C)C(=O)N(C)CCOc1ccc(F)cc1-c1ccc3[nH]nc(c3c1)/C=C/2 [Ex. 1, (18E)-17-ethyl-7-fluoro-13,16-dimethyl-2,12,13,16-tetrahydro-3,5-ethenodipyrazolo[3,4-f:3′,4′-j][1,4]benzoxazacyclopentadecin-14(11H)-one] | 1160 nM | – | – | – | – | – |
| CCc1nn(C)c2c1/C=C/c1n[nH]c3ccc(cc13)-c1cc(F)ccc1OCCN(C)C2=O [Ex. 2, (18E)-17-ethyl-7-fluoro-13,15-dimethyl-2,12,13,15-tetrahydro-3,5-ethenodipyrazolo[3,4-f:3′,4′-j][1,4]benzoxazacyclopentadecin-14(11H)-one] | 353 nM | – | – | – | – | – |
| Cc1c2c(nn1C)C(=O)NCCOc1c(cnn1C)-c1ccc3[nH]nc(c3c1)/C=C/2 [Ex. 10, (17E)-8,15,16-trimethyl-2,11,12,15-tetrahydro-8H-3,5-ethenotripyrazolo[3,4-f:3′,4′-j:4″,3″-n][1,4]oxazacyclopentadecin-13(10H)-one] | 865 nM | – | – | – | – | – |
| Cc1nn(C)c2c1/C=C/c1n[nH]c3ccc(cc13)-c1cnn(C)c1OCCCN(C)C2=O [Ex. 13, (18E)-8,13,15,17-tetramethyl-2,10,11,12,13,15-hexahydro-3,5-ethenotripyrazolo[3,4-g:3′,4′-k:4″,3″-o][1,5]oxazacyclohexadecin-14(8H)-one] | 15.5 nM | – | – | – | – | – |
| Cc1nn(C)c2c1/C=C/c1n[nH]c3ccc(cc13)-c1cnn(C)c1CN(C)CCN(C)C2=O [Ex. 15, (18E)-8,10,13,15,17-pentamethyl-2,8,9,10,11,12,13,15-octahydro-14H-3,5-ethenotripyrazolo[3,4-f:3′,4′-j:4″,3″-n][1,4]diazacyclohexadecin-14-one] | 4.6 nM | 0.157 nM | 2.77 nM | 0.161 nM | 0.53 nM | – |
| Cc1nn(CCO)c2c1/C=C/c1n[nH]c3ccc(cc13)-c1cnn(C)c1OCCN(C)C2=O [Ex. 16, (17E)-14-(2-hydroxyethyl)-8,12,16-trimethyl-2,11,12,14-tetrahydro-8H-3,5-ethenotripyrazolo[3,4-f:3′,4′-j:4″,3″-n][1,4]oxazacyclopentadecin-13(10H)-one] | < 1 nM | 0.299 nM | 10.4 nM | 0.16 nM | 0.758 nM | – |
| Cc1nn(CCN2CCCC2)c2c1/C=C/c1n[nH]c3ccc(cc13)-c1cnn(C)c1OCCN(C)C2=O [Ex. 18, (17E)-8,12,16-trimethyl-14-[2-(pyrrolidin-1-yl)ethyl]-2,11,12,14-tetrahydro-8H-3,5-ethenotripyrazolo[3,4-f:3′,4′-j:4″,3″-n][1,4]oxazacyclopentadecin-13(10H)-one] | 17.8 nM | – | – | – | – | – |
| Cc1c2c(nn1CCN1CCCC1)C(=O)N(C)CCOc1c(cnn1C)-c1ccc3[nH]nc(c3c1)/C=C/2 [Ex. 19, (17E)-8,12,16-trimethyl-15-[2-(pyrrolidin-1-yl)ethyl]-2,11,12,15-tetrahydro-8H-3,5-ethenotripyrazolo[3,4-f:3′,4′-j:4″,3″-n][1,4]oxazacyclopentadecin-13(10H)-one] | 15.2 nM | – | – | – | – | IC50 (FLT3): 0.564 nM; IC50 (FLT3-ITD): 1.05 nM |
| CCOc1nn(C)c2c1/C=C/c1n[nH]c3ccc(cc13)-c1cnn(C)c1OCCN(C)C2=O [Ex. 22, (17E)-16-ethoxy-8,12,14-trimethyl-2,11,12,14-tetrahydro-8H-3,5-ethenotripyrazolo[3,4-f:3′,4′-j:4″,3″-n][1,4]oxazacyclopentadecin-13(10H)-one] | < 0.2 nM | 0.355 nM | 9.47 nM | 0.253 nM | 0.668 nM | IC50 (FLT3): 0.093 nM; IC50 (FLT3-ITD): 0.527 nM |
| CCc1nn(C)c2c1/C=C/c1n[nH]c3ccc(cc13)-c1cnn(C)c1O[C@@H](C)CN(C)C2=O [Ex. 23, (10S,17E)-16-ethyl-8,10,12,14-tetramethyl-2,11,12,14-tetrahydro-8H-3,5-ethenotripyrazolo[3,4-f:3′,4′-j:4″,3″-n][1,4]oxazacyclopentadecin-13(10H)-one] | 4.1 nM | 0.843 nM | 5.53 nM | 0.225 nM | 1.39 nM | IC50 (FLT3): 0.416 nM; IC50 (FLT3-ITD): 0.967 nM |
| CCc1noc2c1/C=C/c1n[nH]c3ccc(cc13)-c1cnn(C)c1OCCN(C)C2=O [Ex. 25, (17E)-16-ethyl-8,12-dimethyl-2,8,11,12-tetrahydro-3,5-etheno[1,2]oxazolo[5,4-f]dipyrazolo[3,4-j:4′,3′-n][1,4]oxazacyclopentadecin-13(10H)-one] | 0.52 nM | – | – | – | – | – |
| CCOc1nn(CCO)c2c1/C=C/c1n[nH]c3ccc(cc13)-c1cnn(C)c1OCCN(C)C2=O [Ex. 27, (17E)-16-ethoxy-14-(2-hydroxyethyl)-8,12-dimethyl-2,11,12,14-tetrahydro-8H-3,5-ethenotripyrazolo[3,4-f:3′,4′-j:4″,3″-n][1,4]oxazacyclopentadecin-13(10H)-one] | 7.6 nM | 1.55 nM | 108 nM | 1.11 nM | 3.03 nM | – |
| CN1CCOc2c(cnn2C)-c2ccc3[nH]nc(c3c2)/C=C/c2cn(C)nc2C1=O [compound 4, (17E)-8,12,15-trimethyl-2,11,12,15-tetrahydro-8H-3,5-ethenotripyrazolo[3,4-f:3′,4′-j:4″,3″-n][1,4]oxazacyclopentadecin-13(10H)-one] | 21.2 nM | – | – | – | – | – |
| CCc1c2c(nn1C)C(=O)N(C)CCOc1ccc(F)cc1-c1cc(Cl)c3[nH]nc(c3c1)/C=C/2 [compound 5, (18E)-21-chloro-17-ethyl-7-fluoro-13,16-dimethyl-2,12,13,16-tetrahydro-3,5-ethenodipyrazolo[3,4-f:3′,4′-j][1,4]benzoxazacyclopentadecin-14(11H)-one] | > 10000 nM | – | – | – | – | – |
| CCn1nc(C)c2c1C(=O)N(C)CCOc1c(cnn1C)-c1ccc3[nH]nc(c3c1)/C=C/2 [compound 11, (17E)-14-ethyl-8,12,16-trimethyl-2,11,12,14-tetrahydro-8H-3,5-ethenotripyrazolo[3,4-f:3′,4′-j:4″,3″-n][1,4]oxazacyclopentadecin-13(10H)-one] | < 0.2 nM | – | – | – | – | – |
| Cc1nn(C)c2c1/C=C/c1n[nH]c3ccc(cc13)-c1cnn(C)c1OCCOCCN(C)C2=O [compound 14, (15E)-3,10,12,14-tetramethyl-5,6,9,10,12,18-hexahydro-3H-19,21-ethenotripyrazolo[3,4-i:3′,4′-m:4″,3″-q][1,4,7]dioxazacyclooctadecin-11(8H)-one] | 384 nM | – | – | – | – | – |
| Cc1nn(C(C)C)c2c1/C=C/c1n[nH]c3ccc(cc13)-c1cnn(C)c1OCCN(C)C2=O [compound 20, (17E)-8,12,16-trimethyl-14-(propan-2-yl)-2,11,12,14-tetrahydro-8H-3,5-ethenotripyrazolo[3,4-f:3′,4′-j:4″,3″-n][1,4]oxazacyclopentadecin-13(10H)-one] | 1.1 nM | – | – | – | – | IC50 (FLT3): 0.187 nM; IC50 (FLT3-ITD): 0.775 nM |
| [2H]C([2H])([2H])N1CCOc2c(cnn2C)-c2ccc3[nH]nc(c3c2)/C=C/c2c(CC)nn(C([2H])([2H])[2H])c2C1=O [compound 21, (17E)-16-ethyl-8-methyl-12,14-bis[(^2H3)methyl]-2,11,12,14-tetrahydro-8H-3,5-ethenotripyrazolo[3,4-f:3′,4′-j:4″,3″-n][1,4]oxazacyclopentadecin-13(10H)-one] | < 0.2 nM | – | – | – | – | – |
| (18E)-15-(2-hydroxyethyl)-8,10,13,17-tetramethyl-2,8,9,10,11,12,13,15-octahydro-14H-3,5-ethenotripyrazolo[3,4-f:3′,4′-j:4″,3″-n][1,4]diazacyclohexadecin-14-one [Ex. 26] | – | 0.233 nM | 31.1 nM | 0.386 nM | 0.605 nM | IC50 (MV-4-11 cells): 15 nM |

— patent US20260070924A1, “INDAZOLE MACROCYCLES AND THEIR USE” (BLOSSOMHILL THERAPEUTICS, INC., priority 2022, published 2026)
